Tests used:
[1] = Pharmacological activity in mice as weight loss agent; format: in vivo
Description: Food was provided ad lib.

[2] = biological target: T1, Protein Tyrosine Phosphatase 1B (PTP1B), human truncated form (1-321) (Homo sapiens, UniProt P18031); assay: Inhibition of PTP1B, 10-dose IC50 mode, fluorescence readout of enzyme activity; format: biochemical; settings: for HILLSLOPE: 10-dose curve
T1 construct: The enzyme was the human truncated form (1-321), recombinantly produced in E. coli; host or cells: E. coli
T1 sequence (P18031 1-321): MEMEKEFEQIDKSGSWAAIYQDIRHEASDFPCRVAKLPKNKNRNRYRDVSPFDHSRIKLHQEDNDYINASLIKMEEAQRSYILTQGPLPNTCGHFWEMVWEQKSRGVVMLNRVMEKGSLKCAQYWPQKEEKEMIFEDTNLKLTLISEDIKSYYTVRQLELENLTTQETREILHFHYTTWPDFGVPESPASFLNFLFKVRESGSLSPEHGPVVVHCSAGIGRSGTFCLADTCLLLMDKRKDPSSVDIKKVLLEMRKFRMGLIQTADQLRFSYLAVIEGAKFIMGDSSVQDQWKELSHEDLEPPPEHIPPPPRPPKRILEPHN
Method: The enzyme was the human truncated form (1-321), recombinantly produced in E. coli. Fluorescence was measured to monitor enzyme activity.

C. elegans model of PD = settings: cited from earlier work
[3] = single and repeat intravenous administration, dilactate salt, alone or in combination; cited from earlier work
mouse models of PD = settings: several mouse models of PD; cited from earlier work
[4] = as the dilactate salt; cited from earlier work
[5] = Phase 2 trial of oral squalamine (ENT-01): pharmacokinetics; format: in vivo, human; settings: patients of Example 8
Method: PK data were collected on the 10 patients enrolled in Stage 1 and 10 patients enrolled in Stage 2 to determine the extent of systemic absorption. In Stage 1, PK data were obtained at each visit, pre-medication, at 1, 2, 4, 8 and 24 hours (Table 9). In Stage 2, PK was measured on days 1 and 6 of the randomization period pre-medication, at 1, 2, 4 and 8 hours (Table 10).
The mean Cmax, Tmax and T1/2 and AUC of the squalamine ion following squalamine (ENT-01) oral dosing for Stage 1 patients. The PK analyses are only approximate, as the lower limit of the validated concentration range was 10 ng/ml; most of the measured concentrations fell below that value. The mean Cmax, Tmax and T1/2 and AUC of the squalamine ion following squalamine (ENT-01) oral dosing for Stage 2 patients. The PK analyses are only approximate, as the lower limit of the validated concentration range was 0.5 ng/ml.

[6] = i.p. 10 mg/kg on days 0, 2, 4, 6, 8 and 10, N=3

[2H]C([2H])([2H])C([2H])(C(CC[C@@H](C)[C@H]1CCC2C3C(CC[C@@]21C)[C@@]1(C)CC[C@H](NCCCNCCCCNCCCN)C[C@@H]1C[C@H]3O)OS(=O)(=O)O)C([2H])([2H])[2H] (some centres unmarked) [Compound D7-1436]
body weight reached ([1]; i.p. 10 mg/kg on days 0, 2, 4, 6, 8 and 10, by day 16, N=3): about 45 % of the starting weight | condition of the animals ([1]; i.p. 10 mg/kg on days 0, 2, 4, 6, 8 and 10, day 16): appeared moribund and were euthanized | potency as compared with MSI-1436 ([1]; weight loss, i.p. 10 mg/kg): increased potency | HILLSLOPE [2]: −2.50 | % Activity ([2]; Conc 1.00E−04 M): −0.37% | Slope (signal/min) ([2]; Conc 1.00E−04 M): −161 signal/min | % Activity ([2]; Conc 1.11E−05 M): −0.74% | Slope (signal/min) ([2]; Conc 1.11E−05 M): −319 signal/min | % Activity ([2]; Conc 1.23E−06 M): 80.63% | Slope (signal/min) ([2]; Conc 1.23E−06 M): 34760 signal/min | % Activity ([2]; Conc 1.37E−07 M): 93.14% | Slope (signal/min) ([2]; Conc 1.37E−07 M): 40150 signal/min | % Activity ([2]; Conc 1.52E−08 M): 101.65% | Slope (signal/min) ([2]; Conc 1.52E−08 M): 43819 signal/min | % Activity ([2]; Conc 3.33E−05 M): −0.84% | Slope (signal/min) ([2]; Conc 3.33E−05 M): −362 signal/min | % Activity ([2]; Conc 3.70E−06 M): 19.55% | Slope (signal/min) ([2]; Conc 3.70E−06 M): 8429 signal/min | % Activity ([2]; Conc 4.12E−07 M): 96.86% | Slope (signal/min) ([2]; Conc 4.12E−07 M): 41755 signal/min | % Activity ([2]; Conc 4.57E−08 M): 101.36% | Slope (signal/min) ([2]; Conc 4.57E−08 M): 43697 signal/min | % Activity ([2]; Conc 5.08E−09 M): 103.59% | Slope (signal/min) ([2]; Conc 5.08E−09 M): 44655 signal/min

CC(C)[C@@H](CC[C@@H](C)C1CCC2C3C(CC[C@@]21C)[C@@]1(C)CC[C@H](NCCCNCCCCNCCCN)C[C@@H]1C[C@H]3O)OS(=O)(=O)O (some centres unmarked) [MSI-1436, reference compound]
nadir in weight [1, 6]: ~16 days | recovery to starting weight [1, 6]: 45 days | HILLSLOPE [2]: −2.19 | % Activity ([2]; Conc 1.00E−04 M): −0.16% | Slope (signal/min) ([2]; Conc 1.00E−04 M): −68 signal/min | % Activity ([2]; Conc 1.11E−05 M): 0.68% | Slope (signal/min) ([2]; Conc 1.11E−05 M): 292 signal/min | Slope (signal/min) ([2]; Conc 1.23E−06 M): 37260 signal/min | Slope (signal/min) ([2]; Conc 1.37E−07 M): 40137 signal/min | Slope (signal/min) ([2]; Conc 1.52E−08 M): 44021 signal/min | Slope (signal/min) ([2]; Conc 3.33E−05 M): −440 signal/min | Slope (signal/min) ([2]; Conc 3.70E−06 M): 16431 signal/min | Slope (signal/min) ([2]; Conc 4.12E−07 M): 39959 signal/min | Slope (signal/min) ([2]; Conc 4.57E−08 M): 42717 signal/min | Slope (signal/min) ([2]; Conc 5.08E−09 M): 43513 signal/min

CC(C)[C@@H](CC[C@@H](C)C1CCC2C3C(CC[C@@]21C)[C@@]1(C)CC[C@H](NCCCNCCCCN)C[C@@H]1C[C@H]3O)OS(=O)(=O)O (stereo partly drawn) [squalamine, 3 beta-N-1-(N-[3-(4-aminobutyl)]-1,3-diaminopropane)-7 alpha,24 zeta-dihydroxy-5 alpha-cholestane 24-sulfate]
muscle paralysis (C. elegans model of PD): complete reversal | well tolerated dose [3]: at least 300 mg/m^2 | gastrointestinal dysmotility (mouse models of PD): reverse gastrointestinal dysmotility | water solubility [4]: highly water soluble | systemic absorption following oral administration [5]: not significantly absorbed

Source: US20200262864A1, “DEUTERATED FORMS OF AMINOSTEROLS AND METHODS OF USING THE SAME” (Enterin, Inc., priority 2019, published 2020)
